Assays:
B. subtilis 168 [1] = assay: fitness (endpoint OD595 vs no drug) (fraction); higher = more growth
Outline: (§1)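 In 384-well plates at 37 °C, cultures began at OD595 0.01 in 30 µl, with 55 µl used for S. pneumoniae. OD595 readings every 30 min for 14 h were corrected by the first reading. Fitness divides the stationary-phase transition optical density by the robust mean of no-drug control wells. The result is capped at 1.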

S. aureus DSM 20231 [2] = assay: as above
Outline: as §1

B. subtilis 168 [3] = assay: Bliss interaction score (quartile over a dose matrix) (fitness difference); higher = more antagonism (negative = synergy)
Outline: (§2)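 Quartiles summarise the Bliss score over technical, biological and donor/recipient replicates, where the score is observed minus expected fitness under a product model. Expected fitness uses single-drug values inferred from combination data. Fitness is OD595 at entry into stationary phase over the plate's robust no-drug mean, capped at 1.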

S. aureus DSM 20231 [4] = assay: as above
Outline: as §2

S. aureus Newman = assay: as above
Outline: as §2

S. pneumoniae D39V = assay: as above
Outline: as §2

[5] = first compound 0.25 µg/mL, partner 0.125 µg/mL
[6] = first compound 0.25 µg/mL, partner 0.25 µg/mL
[7] = first compound 0.25 µg/mL, partner 0.5 µg/mL
[8] = first compound 0.5 µg/mL, partner 0.125 µg/mL
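Throughout, for Bliss interaction score (quartile over a dose matrix): first quartile when negative (synergy) and third quartile when positive (antagonism).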

CC[C@H]1OC(=O)[C@H](C)[C@@H](O[C@H]2C[C@@](C)(OC)[C@@H](O)[C@H](C)O2)[C@H](C)[C@@H](O[C@@H]2O[C@H](C)C[C@H](N(C)C)[C@H]2O)[C@](C)(O)C[C@@H](C)CN(C)[C@H](C)[C@@H](O)[C@]1(C)O [Azithromycin] + COc1cc(Cc2cnc(N)nc2N)cc(OC)c1OC [Trimethoprim]
fitness (B. subtilis 168 [1]; [5]): 0.669
fitness (B. subtilis 168 [1]; [6]): 0.541
fitness (B. subtilis 168 [1]; [7]): 0.452
fitness (B. subtilis 168 [1]; first compound 0.25 µg/mL, partner 1 µg/mL, one replicate): 0.106
fitness (B. subtilis 168 [1]; first compound 0.25 µg/mL, partner 2 µg/mL, one replicate): 0.0698
fitness (B. subtilis 168 [1]; first compound 0.5 µg/mL, partner 0.1 µg/mL, one replicate): 0.365
fitness (B. subtilis 168 [1]; [8]): 0.471
fitness (B. subtilis 168 [1]; first compound 0.5 µg/mL, partner 0.2 µg/mL, one replicate): 0.257
fitness (B. subtilis 168 [1]; first compound 0.5 µg/mL, partner 0.4 µg/mL, one replicate): 0.111
fitness (B. subtilis 168 [1]; first compound 0.5 µg/mL, partner 1 µg/mL, one replicate): 0.051
fitness (B. subtilis 168 [1]; first compound 0.5 µg/mL, partner 2 µg/mL, one replicate): 0.0526
fitness (B. subtilis 168 [1]; first compound 1 µg/mL, partner 0.1 µg/mL, one replicate): 0.144
fitness (B. subtilis 168 [1]; first compound 1 µg/mL, partner 0.2 µg/mL, one replicate): 0.0549
fitness (B. subtilis 168 [1]; first compound 1 µg/mL, partner 0.4 µg/mL, one replicate): 0.0194
fitness (B. subtilis 168 [1]; first compound 1 µg/mL, partner 1 µg/mL, one replicate): 0.0321
fitness (B. subtilis 168 [1]; first compound 1 µg/mL, partner 2 µg/mL, one replicate): 0.0311
fitness (B. subtilis 168 [1]; first compound 2 µg/mL, partner 0.1 µg/mL, one replicate): 0.0143
fitness (B. subtilis 168 [1]; first compound 2 µg/mL, partner 0.125 µg/mL, one replicate): 0.0446
fitness (B. subtilis 168 [1]; first compound 2 µg/mL, partner 0.2 µg/mL, one replicate): 0.0451
fitness (B. subtilis 168 [1]; first compound 2 µg/mL, partner 0.25 µg/mL): 0.0144
fitness (B. subtilis 168 [1]; first compound 2 µg/mL, partner 0.4 µg/mL, one replicate): 0.0182
fitness (B. subtilis 168 [1]; first compound 2 µg/mL, partner 0.5 µg/mL): 0.0327
fitness (S. aureus DSM 20231 [2]; first compound 0.125 µg/mL, partner 0.125 µg/mL): 0.789
fitness (S. aureus DSM 20231 [2]; first compound 0.125 µg/mL, partner 0.25 µg/mL): 0.64
fitness (S. aureus DSM 20231 [2]; first compound 0.125 µg/mL, partner 0.5 µg/mL): 0.538
fitness (S. aureus DSM 20231 [2]; first compound 0.125 µg/mL, partner 1 µg/mL): 0.0427
fitness (S. aureus DSM 20231 [2]; [5]): 0.782
fitness (S. aureus DSM 20231 [2]; [6]): 0.658
fitness (S. aureus DSM 20231 [2]; [7]): 0.562
fitness (S. aureus DSM 20231 [2]; first compound 0.25 µg/mL, partner 1 µg/mL): 0.03
fitness (S. aureus DSM 20231 [2]; [8]): 0.38
fitness (S. aureus DSM 20231 [2]; first compound 0.5 µg/mL, partner 0.5 µg/mL): 0.292
fitness (S. aureus DSM 20231 [2]; first compound 0.5 µg/mL, partner 1 µg/mL): 0.0131
Bliss interaction score (B. subtilis 168 [3]): -0.194
Bliss interaction score (S. aureus DSM 20231 [4]): 0.171
Bliss interaction score (S. aureus Newman): 0.175
Bliss interaction score (S. pneumoniae D39V): -0.0811
